{"source": "paper PMC4045324", "about": "(Biochemistry, 2014)", "key": {"[1]": {"target": "MtDXR W203Y (Mycobacterium tuberculosis, UniProt P9WNS1, W203Y)"}, "[2]": {"target": "MtDXR W203F (Mycobacterium tuberculosis, UniProt P9WNS1, W203F)"}}, "data": [{"smiles": "O=CN(O)CCCP(=O)(O)O", "note": "[fosmidomycin]", "values": [{"measurement": "binding enthalpy more exothermic than wild type by", "setting": "[1]", "result": 5.4, "unit": "kcal/mol"}, {"measurement": "enthalpy share of total binding energy (enthalpy-driven binding)", "setting": "[1]", "result": 91, "unit": "%"}, {"measurement": "ΔG°", "setting": "[1]; pH 7.5", "result": "–11.26 ± 0.19 kcal/mol"}, {"measurement": "ΔH°", "setting": "[1]; pH 7.5", "result": "–10.2 ± 0.3 kcal/mol"}, {"measurement": "–TΔS°", "setting": "[1]; pH 7.5", "result": "–1.0 ± 0.4 kcal/mol"}, {"measurement": "binding enthalpy more exothermic than wild type by", "setting": "[2]", "result": 2.8, "unit": "kcal/mol"}, {"measurement": "enthalpy share of total binding energy (enthalpy-driven binding)", "setting": "[2]", "result": 75, "unit": "%"}, {"measurement": "ΔG°", "setting": "[2]; pH 7.5", "result": "–10.10 ± 0.05 kcal/mol"}, {"measurement": "ΔH°", "setting": "[2]; pH 7.5", "result": "–7.6 ± 0.7 kcal/mol"}, {"measurement": "–TΔS°", "setting": "[2]; pH 7.5", "result": "–2.5 ± 0.7 kcal/mol"}]}]}
